Read-outs that look alike come from different tables or passages of the source.

For data set [1] the following is noted: described in WO2011/042560 A1; cited from earlier work.
Data set [2] in a line: Accelerated stability test on moisture content changes (40° C., 75% relative humidity), Karl-Fischer. It is filed as physicochemical. As to conditions: glass vial, 6 weeks, Karl-Fischer moisture meter. On the procedure:
The novel monohydrate form “a” of avibactam sodium salt prepared in Example 1 was packaged in a glass vial and stored at 40° C. and 75% relative humidity for 6 weeks and the change in moisture content thereof was measured by a Karl-Fischer moisture meter at weekly intervals for about 6 weeks.

Data set [3] can be described thus: Comparative accelerated stability test on purity/appearance changes (40° C., 75% relative humidity), HPLC. It is filed as physicochemical. The settings on record: 6 weeks. On the procedure: The novel monohydrate form “a” of avibactam sodium salt prepared in Example 1, the monohydrate form “A” and the anhydrous form “B” were each packaged in glass vials and stored at 40° C. and 75% relative humidity for 6 weeks and the purity changes thereof were measured by HPLC at weekly intervals.

A short description of the next data set: DSC pattern measurement. It is filed as physicochemical. The settings on record: 3 to 5 mg, 25 to 500° C. at 10 K/min. On the procedure:
The DSC pattern was measured while heating 3 to 5 mg of the novel monohydrate form “a” of avibactam sodium salt prepared in Example 1 from 25 to 500° C. at a rate of 10 K/min. As a result, the exothermic decomposition peak was confirmed at 227.3° C. […] It was confirmed therefrom that it had different physicochemical properties from the monohydrate form “A”, and the results are shown in FIG. 6.

The next data set in a line: TGA pattern measurement. The data set is classed as physicochemical. As to conditions: 3 to 5 mg, 30 to 500° C. at 10 K/min; theoretical water content of the monohydrate 5.90%. On the procedure:
The TGA pattern was measured while heating 3 to 5 mg of the novel monohydrate form “a” of avibactam sodium salt prepared in Example 1 from 30 to 500° C. at a rate of 10 K/min. […] In addition, decomposition exotherm accompanied by weight loss at 200 to 220° C. was confirmed and the results are shown in FIG. 5.

For data set [4] the following is noted: described in WO2011/042560 A1; cited from earlier work. The source holds these as a separate data set.

`NC(=O)[C@@H]1CC[C@@H]2CN1C(=O)N2OS(=O)(=O)O` [form “a”, (1R,2S,5R)-7-oxo-6-sulfooxy-1,6-diazabicyclo[3.2.1]octane-2-carboxamide sodium]: the “exothermic decomposition peak (DSC)” value in data set [1] was 238.9 °C; in “DSC pattern measurement”, 227.3 °C. Moreover, the “maintenance of monohydrate form (change in moisture content)” value in data set [2] is “maintained the monohydrate form thereof”. Moreover, in data set [3] (accelerated stability, vs anhydrous form “B”), the “pharmaceutical stability compared with anhydrous form “B”” value is “pharmaceutically more stable than the form “B””. For the same compound, the “stability (purity changes) compared with monohydrate form “A”” value in data set [3] (glass vials, HPLC at weekly intervals, vs monohydrate form “A”) is “a more stable form than the monohydrate form “A””. In “TGA pattern measurement”, the “weight loss at 100 to 140° C. (TGA)” value turned out to be 5.57%.

With `NC(=O)[C@@H]1CC[C@@H]2CN1C(=O)N2OS(=O)(=O)O` [form “E”, (1R,2S,5R)-7-oxo-6-sulfooxy-1,6-diazabicyclo[3.2.1]octane-2-carboxamide sodium], the “stability during long storage and at higher temperature” value in data set [4] was “tends to lose water and hydrolyze during long storage and at higher temperature”.

The values are drawn from US20260335332A1, “STABLE MONOHYDRATE FORM OF AVIBACTAM SODIUM SALT AND PREPARATION METHOD THEREFOR” (KYONGBO PHARM. CO., LTD., priority 2022, published 2026).
